What was measured:
Type in all cases: in vivo
[1] = system: Kochia (Kochia scoparia); experiment: Test A preemergence
Source text: (§1) Seeds of plant species selected from barnyardgrass (Echinochloa crus-galli), Kochia (Kochia scoparia), ragweed (common ragweed, Ambrosia elatior), ryegrass, Italian (Italian ryegrass, Lolium multiflorum), crabgrass, large (Digitaria sanguinalis), giant foxtail (Setaria faberii), green foxtail (Setaria viridis), morningglory (Ipomoea spp.), pigweed (Amaranthus retroflexus), velvetleaf (Abutilon theophrasti), wheat (Triticum aestivum), and corn (Zea mays) were planted into a blend of loam soil and sand and treated preemergence with a directed soil spray using test chemicals formulated in anon-phytotoxic solvent mixture which included a surfactant.
(§2) At the same time, plants selected from these crop and weed species and also blackgrass (Alopecurus myosuroides), and Galium (catchweed bedstraw, Galium aparine) were planted in pots containing the same blend of loam soil and sand and treated with postemergence applications of test chemicals formulated in the same manner. Plants ranged in height from 2 to 10 cm and were in the one- to two-leaf stage for the postemergence treatment. Treated plants and untreated controls were maintained in a greenhouse for approximately 10 d, after which time all treated plants were compared to untreated controls and visually evaluated for injury. Plant response ratings, summarized in Table A, are based on a 0 to 100 scale where 0 is no effect and 100 is complete control. A dash (-) response means no test result.

[2] = system: barnyardgrass (Echinochloa crus-galli); experiment: Test A preemergence
Source text: as §1, §2

[3] = system: giant foxtail (Setaria faberii); experiment: Test A preemergence; settings: for Plant response rating, Foxtail, Giant: 125 g ai/ha, 0 to 100 scale (0 no effect, 100 complete control)
Source text: as §1, §2

[4] = system: pigweed (Amaranthus retroflexus); experiment: Test A preemergence
Source text: as §1, §2

[5] = system: ragweed (common ragweed, Ambrosia elatior); experiment: Test A preemergence; settings: for Plant response rating, Ragweed: 125 g ai/ha, 0 to 100 scale (0 no effect, 100 complete control)
Source text: as §1, §2

[6] = system: ryegrass, Italian (Italian ryegrass, Lolium multiflorum); experiment: Test A preemergence; settings: for Plant response rating, Ryegrass, Italian: 125 g ai/ha, 0 to 100 scale (0 no effect, 100 complete control)
Source text: as §1, §2

[7] = system: Galium (catchweed bedstraw, Galium aparine); experiment: Test A postemergence
Source text: as §1, §2

[8] = system: Kochia (Kochia scoparia); experiment: Test A postemergence
Source text: as §1, §2

[9] = system: barnyardgrass (Echinochloa crus-galli); experiment: Test A postemergence
Source text: as §1, §2

[10] = system: blackgrass (Alopecurus myosuroides); experiment: Test A postemergence
Source text: as §1, §2

[11] = system: corn (Zea mays); experiment: Test A postemergence
Source text: as §1, §2

[12] = system: giant foxtail (Setaria faberii); experiment: Test A postemergence
Source text: as §1, §2

[13] = system: pigweed (Amaranthus retroflexus); experiment: Test A postemergence
Source text: as §1, §2

[14] = system: ragweed (common ragweed, Ambrosia elatior); experiment: Test A postemergence
Source text: as §1, §2

[15] = system: ryegrass, Italian (Italian ryegrass, Lolium multiflorum); experiment: Test A postemergence
Source text: as §1, §2

[16] = system: wheat (Triticum aestivum); experiment: Test A postemergence
Source text: as §1, §2

[17] = system: barnyardgrass (Echinochloa crus-galli); experiment: Test B flooded paddy test; settings: Flood, 250 g ai/ha, 0 to 100 scale where 0 is no effect and 100 is complete control
Protocol: (§3) Plant species in the flooded paddy test selected from rice (Oryra sativa), sedge, umbrella (small-flower umbrella sedge, Cyperus difformis), ducksalad (Heteranthera limosa), and barnyardgrass (Echinochloa crus-galli) were grown to the 2-leaf stage for testing. At time of treatment, test pots were flooded to 3 cm above the soil surface, treated by application of test compounds directly to the paddy water, and then maintained at that water depth for the duration of the test. Treated plants and controls were maintained in a greenhouse for 13 to 15 d, after which time all species were compared to controls and visually evaluated. Plant response ratings, summarized in Table B, are based on a scale of 0 to 100 where 0 is no effect and 100 is complete control. A dash (-) response means no test result.

[18] = system: ducksalad (Heteranthera limosa); experiment: Test B flooded paddy test; settings: Flood, 250 g ai/ha, 0 to 100 scale where 0 is no effect and 100 is complete control
Protocol: as §3

[19] = system: rice (Oryra sativa); experiment: Test B flooded paddy test; settings: Flood, 250 g ai/ha, 0 to 100 scale where 0 is no effect and 100 is complete control
Protocol: as §3

[20] = system: sedge, umbrella (small-flower umbrella sedge, Cyperus difformis); experiment: Test B flooded paddy test; settings: Flood, 250 g ai/ha
Protocol: as §3

[21] = 125 g ai/ha, preemergence, 0 to 100 scale (0 no effect, 100 complete control)
[22] = Preemergence, 500 g ai/ha, 0 is no effect, 100 is complete control
[23] = 500 g ai/ha, postemergence, 0 to 100 scale, 0 no effect, 100 complete control
[24] = Postemergence, 125 g ai/ha, visual injury, 0 to 100 scale (0 no effect, 100 complete control), approx. 10 d
[25] = 500 g ai/ha, preemergence, 0 to 100 scale where 0 is no effect and 100 is complete control
[26] = 125 g ai/ha, Postemergence, visual rating about 10 d after treatment
[27] = Postemergence, 500 g ai/ha, visual injury, 0 to 100 scale (0 no effect, 100 complete control), approx. 10 d

Cc1ccc(C2CNC(=O)C2C(=O)Nc2cccc(F)c2F)cc1F (racemic) [Compound 369]
60: Plant response rating, Ragweed ([5]; preemergence) | Ragweed plant response rating (0 to 100 scale) [5, 22] | Plant response rating, Galium [7, 24] | Plant response rating, Kochia [8, 23] | Plant response rating, Wheat [16, 23]
40: Kochia plant response rating (0 to 100 scale) [1, 22]
20: Ryegrass, Italian plant response rating (0 to 100 scale) [6, 22] | Plant response rating, Kochia [8, 24] | Plant response rating, Foxtail, Giant [12, 24] | Plant response rating, Ryegrass, Italian [15, 24] | Plant response rating, Barnyardgrass ([17]; 13 to 15 d)
70: Plant response rating, Galium [7, 23] | Plant response rating, Blackgrass [10, 23]
30: Plant response rating, Blackgrass [10, 24] | Plant response rating, Ragweed [14, 23]
50: Plant response rating, Kochia [1, 21] | Plant response rating, Corn [11, 23] | Plant response rating, Ryegrass, Italian [15, 23]
0: Plant response rating, Pigweed [4, 21] | Pigweed plant response rating (0 to 100 scale) [4, 22] | Plant response rating, Ryegrass, Italian ([6]; preemergence) | Plant response rating, Corn [11, 24] | Plant response rating, Pigweed [13, 23] | Plant response rating, Pigweed [13, 24] | Plant response rating, Ragweed [14, 24] | Plant response rating, Wheat [16, 24] | Plant response rating, Rice ([19]; 13 to 15 d) | Plant response rating, Sedge, Umbrella ([20]; 0 to 100 scale where 0 is no effect and 100 is complete control, 13 to 15 d)
80: Plant response rating, Foxtail, Giant [12, 23]
100: Plant response rating, Ducksalad ([18]; 13 to 15 d)
90: Plant response rating, Barnyardgrass [2, 21] | Barnyardgrass plant response rating (0 to 100 scale) [2, 22] | Plant response rating, Foxtail, Giant ([3]; preemergence) | Foxtail, Giant plant response rating (0 to 100 scale) [3, 22] | Plant response rating, Barnyardgrass [9, 23] | Plant response rating, Barnyardgrass [9, 24]

Cc1cc([C@H]2CN(C)C(=O)[C@@H]2C(=O)Nc2ccccc2[S+](C)[O-])ccc1F (stereo partly drawn) [Compound 1313]
40%: pest or weed control at 500 g/ha ([7]; Galium, post-emergence, 240 h, Postemergence, 500 g ai/ha, visual injury, 0 to 100 scale (0 no effect, 100 complete control), approx. 10 d, read-out: Plant response rating, Galium)
80%: pest or weed control at 500 g/ha ([3]; Setaria faberi, pre-emergence, 240 h, 500 g ai/ha, preemergence, 0 to 100 scale where 0 is no effect and 100 is complete control, read-out: Foxtail, Giant plant response rating)
0%: pest or weed control at 125 g/ha ([4]; Amaranthus retroflexus, pre-emergence, 240 h, Preemergence, 125 g ai/ha, 0 to 100 scale (0 no effect, 100 complete control), read-out: Plant response rating, Pigweed) | pest or weed control at 125 g/ha ([10]; Alopecurus myosuroides, post-emergence, 240 h, 125 g ai/ha, Postemergence, visual rating about 10 d after treatment, read-out: Blackgrass plant response rating (0 to 100 scale)) | pest or weed control at 125 g/ha ([13]; Amaranthus retroflexus, post-emergence, 240 h, 125 g ai/ha, Postemergence, visual rating about 10 d after treatment, read-out: Pigweed plant response rating (0 to 100 scale)) | pest or weed control at 125 g/ha ([14]; Ambrosia artemisiifolia, post-emergence, 240 h, 125 g ai/ha, Postemergence, visual rating about 10 d after treatment, read-out: Ragweed plant response rating (0 to 100 scale)) | pest or weed control at 125 g/ha ([15]; Lolium multiflorum, post-emergence, 240 h, 125 g ai/ha, Postemergence, visual rating about 10 d after treatment, read-out: Ryegrass, Italian plant response rating (0 to 100 scale)) | pest or weed control at 500 g/ha ([15]; Lolium multiflorum, post-emergence, 240 h, Postemergence, 500 g ai/ha, visual injury, 0 to 100 scale (0 no effect, 100 complete control), approx. 10 d, read-out: Plant response rating, Ryegrass, Italian) | pest or weed control at 250 g/ha ([19]; Oryza sativa, read-out: Rice plant response rating) | pest or weed control at 250 g/ha ([20]; Cyperus difformis, 360 h, visually evaluated after 13 to 15 d, read-out: Plant response rating, Sedge, Umbrella (0 to 100 scale where 0 is no effect and 100 is complete control))
100%: pest or weed control at 500 g/ha ([1]; Bassia scoparia, pre-emergence, 240 h, 500 g ai/ha, preemergence, 0 to 100 scale where 0 is no effect and 100 is complete control, read-out: Kochia plant response rating) | pest or weed control at 500 g/ha ([2]; Echinochloa crus-galli, pre-emergence, 240 h, 500 g ai/ha, preemergence, 0 to 100 scale where 0 is no effect and 100 is complete control, read-out: Barnyardgrass plant response rating)
90%: pest or weed control at 125 g/ha ([1]; Bassia scoparia, pre-emergence, 240 h, Preemergence, 125 g ai/ha, 0 to 100 scale (0 no effect, 100 complete control), read-out: Plant response rating, Kochia) | pest or weed control at 125 g/ha ([2]; Echinochloa crus-galli, pre-emergence, 240 h, Preemergence, 125 g ai/ha, 0 to 100 scale (0 no effect, 100 complete control), read-out: Plant response rating, Barnyardgrass) | pest or weed control at 125 g/ha ([12]; Setaria faberi, post-emergence, 240 h, 125 g ai/ha, Postemergence, visual rating about 10 d after treatment, read-out: Foxtail, Giant plant response rating (0 to 100 scale)) | pest or weed control at 500 g/ha ([12]; Setaria faberi, post-emergence, 240 h, Postemergence, 500 g ai/ha, visual injury, 0 to 100 scale (0 no effect, 100 complete control), approx. 10 d, read-out: Plant response rating, Foxtail, Giant)
0: Pigweed plant response rating [4, 25] | Ragweed plant response rating [5, 25] | Plant response rating, Ragweed ([5]; Preemergence) | Plant response rating, Ryegrass, Italian ([6]; Preemergence) | Galium plant response rating (0 to 100 scale) [7, 26] | Plant response rating, Blackgrass [10, 27] | Corn plant response rating (0 to 100 scale) [11, 26] | Plant response rating, Corn [11, 27] | Plant response rating, Pigweed [13, 27] | Plant response rating, Ragweed [14, 27] | Wheat plant response rating (0 to 100 scale) [16, 26] | Plant response rating, Wheat [16, 27]
50%: pest or weed control at 500 g/ha ([8]; Bassia scoparia, post-emergence, 240 h, Postemergence, 500 g ai/ha, visual injury, 0 to 100 scale (0 no effect, 100 complete control), approx. 10 d, read-out: Plant response rating, Kochia)
20: Plant response rating, Foxtail, Giant ([3]; Preemergence) | Kochia plant response rating (0 to 100 scale) [8, 26]
70: Ducksalad plant response rating [18]
25: Barnyardgrass plant response rating [17]

Reference: patent publication US12077503B2, “Substituted cyclic amides and their use as herbicides” (FMC CORPORATION, priority 2015, dated 2024)
